Experiments:
BE2-C = assay: MTT cell growth inhibition: BE2-C; type: cell-based; conditions: Homo sapiens, BE(2)-C, read-out: GI50 = Concentration (µM) that inhibits cell growth by 50%; BE2-C neuroblastoma; dose response
[1] = tested on: panel of 10 cancer cell lines and a normal cell line (MCF10A); assay: Cancer screening: whole cell line panel; type: cell-based; conditions: for GI50: Homo sapiens, read-out: GI50 values across all cancer cell lines and the normal cell line
HT29 = assay: MTT cell growth inhibition: HT29; type: cell-based; conditions: Homo sapiens, HT-29, read-out: GI50 = Concentration (µM) that inhibits cell growth by 50%; HT29 colon carcinoma; dose response
[2] = target: T1, bovine liver β-glucosidase (Bos taurus, UniProt F1MNT6); assay: Glycosidase inhibition, laboratory 1: bovine liver β-glucosidase; type: biochemical; conditions: methanol
T1 sequence (F1MNT6 1-469): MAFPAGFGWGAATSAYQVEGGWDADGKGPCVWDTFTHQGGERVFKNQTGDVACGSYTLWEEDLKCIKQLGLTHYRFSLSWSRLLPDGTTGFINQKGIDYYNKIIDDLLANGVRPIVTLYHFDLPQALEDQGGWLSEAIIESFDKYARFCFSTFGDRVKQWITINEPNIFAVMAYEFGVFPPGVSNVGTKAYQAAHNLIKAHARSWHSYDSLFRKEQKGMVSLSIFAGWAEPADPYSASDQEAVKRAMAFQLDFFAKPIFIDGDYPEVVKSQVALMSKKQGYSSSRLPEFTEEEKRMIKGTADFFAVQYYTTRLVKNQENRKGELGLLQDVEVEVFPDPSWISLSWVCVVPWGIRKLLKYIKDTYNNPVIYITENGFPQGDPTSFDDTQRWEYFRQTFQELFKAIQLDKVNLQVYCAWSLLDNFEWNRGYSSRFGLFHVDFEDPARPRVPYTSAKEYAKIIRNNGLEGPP
Excerpt: (§1) The enzymes α-glucosidase (from yeast), β-glucosidases (from almond and bovine liver), α-galactosidase (from coffee beans), β-galactosidase (from bovine liver), α-mannosidase (from Jack bean), β-mannosidase (from snail), α-L-rhamnosidase (from Penicillium decumbens), α-L-fucosidase (from bovine kidney), trehalase (from porcine kidney), β-glucuronidases (from E. coli and bovine liver), amyloglucosidase (from A. niger), para-nitrophenyl glycosides, and various disaccharides were purchased from Sigma-Aldrich Co (St Louis, MO, USA).
(§2) Brush border membranes were prepared from the rat small intestine according to the method of Kessler et al. and were assayed at pH 6.8 for rat intestinal maltase using maltose. For rat intestinal maltase, porcine kidney trehalase, and A. niger amyloglucosidase activities, the reaction mixture contained 25 mM maltose and the appropriate amount of enzyme, and the incubations were performed for 10–30 min at 37 °C. The reaction was stopped by heating at 100 °C for 3 min. After centrifugation (600× g; 10 min), the resulting reaction mixture was added to the Glucose CII-test Wako (Wako Pure Chemical Ind., Osaka, Japan). The absorbance at 505 nm was measured to determine the amount of the released D-glucose. Other glycosidase activities were determined using an appropriate para-nitrophenyl glycoside as substrate at the optimum pH of each enzyme. The reaction mixture contained 2 mM of the substrate and the appropriate amount of enzyme. The reaction was stopped by addition of 400 mM Na2CO3. The released para-nitrophenol was measured spectrometrically at 400 nm. All reactions run in methanol.

panel of 15 glycosidases = assay: Glycosidase inhibition, laboratory 1: whole panel; type: biochemical; conditions: laboratory 1, methanol; range or words over enzymes
Excerpt: as §1
as §2, with “After centrifugation (600× g; 10 min), the resulting reaction mixture was added to the Glucose CII-test Wako (Wako Pure Chemical Ind., Osaka, Japan).” left out, “The reaction mixture contained 2 mM of the substrate and the appropriate amount of enzyme. The reaction was stopped by addition of 400 mM Na2CO3.” left out, “All reactions run in methanol.” left out

Molecule | GI50 (BE2-C) [µM] | GI50 [1] [µM] | GI50 (HT29) [µM] | inhibition at 10 µM [2] [%] | other results
CC1(C)OB(c2ccccc2NC(=O)c2cc(Cl)c(Cl)c(Cl)c2Cl)OC1(C)C [ortho 5, 2,3,4,5-Tetrachloro-N-(2-(4,4,5,5-tetramethyl-1,3,2-dioxaborolan-2-yl)phenyl)benzamide] | 16 ± 0.58 | 11 to 27 | 14 ± 1.7 | 21.2 | percent inhibition across the glycosidase panel (panel of 15 glycosidases): no significant inhibition
CC1(C)OB(c2ccccc2CNC(=O)c2cc(Cl)c(Cl)c(Cl)c2Cl)OC1(C)C [ortho 8, 2,3,4,5-tetrachloro-N-(2-(4,4,5,5-tetramethyl-1,3,2-dioxaborolan-2-yl)benzyl)benzamide] |  |  |  |  | Percent cell growth inhibition across the cell line panel ([1]; 25 μM, range or words over cell lines): almost complete abrogation of cell growth inhibition
N[C@@H](Cc1ccc(B(O)O)cc1)C(=O)O [^10B-BPA, reference compound] |  |  |  |  | inhibition % at 100 μM ([2]; 100 μM): ^cNI ^d (14.2%)
CC1(C)OB(c2ccc(CN3C(=O)c4c(Cl)c(Cl)c(Cl)c(Cl)c4C3=O)cc2)OC1(C)C [para 3, 4,5,6,7-Tetrachloro-2-(4-(4,4,5,5-tetramethyl-1,3,2-dioxaborolan-2-yl)benzyl)isoindoline-1,3-dione] | 8.1 ± 1.7 | 3 to 18 | 5.3 ± 1.3 |  | inhibition at 100 µM ([2]; 100 μM): 4%
Borocaptate sodium [BSH, reference compound] |  |  |  |  | inhibition % at 1000 μM ([2]; 1000 μM): ^aNI ^b (15%)
CC1(C)OB(c2cccc(CN3C(=O)c4c(Cl)c(Cl)c(Cl)c(Cl)c4C3=O)c2)OC1(C)C [meta 3, 4,5,6,7-Tetrachloro-2-(3-(4,4,5,5-tetramethyl-1,3,2-dioxaborolan-2-yl)benzyl)isoindoline-1,3-dione] | 29 ± 0.58 | 18 to 38 | 26 ± 2.6 | 18.8 | 

From article PMC9182199, “Borylated 2,3,4,5-Tetrachlorophthalimide and Their 2,3,4,5-Tetrachlorobenzamide Analogues: Synthesis, Their Glycosidase Inhibition and Anticancer Properties in View to Boron Neutron Capture Therapy” (Molecules, 2022)
